Laboratory results published in patent US20240108001A1, “Antibacterial Composition” (LG Chem, Ltd., priority 2021, published 2024).

Key:
[1] = Critical micelle concentration from surface tension at each concentration (Method 5, Du Nouy ring, force tensiometer); format: physicochemical; settings: aqueous solutions, measurement repeated three times
Protocol: A solution comprising the compound comprising quaternary ammonium structure is prepared, and the surface tension of the solution is measured at each concentration. A calibration curve of the surface tension at each concentration is obtained, and the critical micelle concentration of the compound comprising the quaternary ammonium structure is obtained therefrom.
In this case, the surface tension at each concentration may be measured using a surface tension meter (force tensiometer) and a Du Nouy ring method.
In addition, the solution may use a solvent such as distilled water, but the solvent is not limited thereto.
The critical micelle concentrations of Monomers 2 and 3 and Comparative Monomer 2 were measured by Method 5, and are shown in the following Table 4 and FIGS. 4 to 6. More specifically, aqueous solutions (30 mL) were prepared for each concentration of Monomers 2 and 3 and Comparative Monomer 2, and the surface tension was measured using the Du Nouyring method of a force tensiometer. Each measurement was repeated three times. The surface tension was measured by preparing diluted solutions until the surface tension was similar to deionized water. The critical micelle concentration (CMC) was confirmed by confirming through the change in surface tension with concentration that each aqueous solution formed a micelle.

3T3 = assay: Acute oral toxicity dose LD50 by 3T3 Neutral Red Uptake (NRU) assay (OECD Guidance Document No 129); format: cell-based; settings: LD50 calculated from 3T3 NRU assay (OECD GD 129)
Protocol: The acute oral toxicity dose LD50 was measured by 3T3 Neutral Red Uptake (NRU) assay (OECD Guidance Document No 129). Specifically, LD50 may be calculated by the following method.

Row | Compound | Critical micelle concentration (wt %) [1] [wt %] | Acute oral toxicity dose (mg/Kg) LD50 (3T3)
1 | C=CC(=O)OCC[N+](CCCC)(CCCC)CCCCCCCCCC [Monomer 2] | 1.5 ± 0.3 | –
2 | C=C(C)C(=O)OCC[N+](CCCC)(CCCCCCCC)CCCCCCCCCC (centres unmarked) [Monomer 7] | – | 998 mg/kg
3 | C=CC(=O)OCC[N+](CCCC)(CCCC)CCCCCC [Comparative Monomer 1, reference compound] | – | 2,355 mg/Kg
4 | C=C(C)C(=O)OCC[N+](CCCC)(CCCCCCCCCC)CCCCCCCCCC [Monomer 8] | – | 869 mg/kg
5 | C=CC(=O)OCC[N+](CCCC)(CCCC)CCCCCCCCCCCC [Monomer 3] | 0.25 ± 0.05 | 843 mg/kg
6 | C=CC(=O)OCC[N+](CCCCCCCCCCCCCC)(CCCCCCCCCCCCCC)CCCCCCCCCCCCCC [Comparative Monomer 2, reference compound] | 0.06 ± 0.01 | 231 mg/kg
